Assay [1] deals with T1, Tyrosine-protein phosphatase non-receptor type 2 (Homo sapiens, UniProt P17706).
T1 sequence (P17706 whole entry): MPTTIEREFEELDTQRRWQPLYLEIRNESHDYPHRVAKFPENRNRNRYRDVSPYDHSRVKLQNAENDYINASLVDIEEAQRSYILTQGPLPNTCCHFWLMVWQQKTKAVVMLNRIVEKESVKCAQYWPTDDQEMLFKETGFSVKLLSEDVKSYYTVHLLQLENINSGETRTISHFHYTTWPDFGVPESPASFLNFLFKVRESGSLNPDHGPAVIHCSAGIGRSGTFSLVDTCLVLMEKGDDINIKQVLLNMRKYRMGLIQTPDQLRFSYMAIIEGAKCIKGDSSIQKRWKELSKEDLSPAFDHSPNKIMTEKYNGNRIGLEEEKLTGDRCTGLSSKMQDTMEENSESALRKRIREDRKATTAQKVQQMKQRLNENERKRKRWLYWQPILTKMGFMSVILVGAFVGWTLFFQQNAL
Briefly: PTP1B and TCPTP Inhibition Assay. The note with it: pH 7.5; 22 °C.
Procedure: (§1) For each concentration of test compound or DMSO control, the initial rates were used to fit the rectangular hyperbola of Michaelis-Menten by nonlinear regression analysis. The ratio of the apparent Km/Vmax vs inhibitor concentration was plotted, and the Ki was calculated by linear regression to be the negative X-intercept.

The target in assay [2] is T2, Tyrosine-protein phosphatase non-receptor type 1 [1-298] (Homo sapiens, UniProt P18031).
T2 construct: 1-298
T2 sequence (P18031 whole entry): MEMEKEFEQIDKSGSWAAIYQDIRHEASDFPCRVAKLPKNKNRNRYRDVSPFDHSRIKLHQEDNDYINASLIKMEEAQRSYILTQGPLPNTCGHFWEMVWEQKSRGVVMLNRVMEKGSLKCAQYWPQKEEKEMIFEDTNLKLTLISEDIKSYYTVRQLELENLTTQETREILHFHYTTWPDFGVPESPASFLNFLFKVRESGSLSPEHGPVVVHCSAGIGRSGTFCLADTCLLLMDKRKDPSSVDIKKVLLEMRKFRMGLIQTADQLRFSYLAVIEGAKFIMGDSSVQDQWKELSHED
Briefly: PTP1B and TCPTP Inhibition Assay. As to conditions: pH 7.5; 22 °C.
Procedure: as §1

Some results are limits rather than exact numbers.

For the compound `COC(=O)c1c(O)cccc1OCCCCNC(=O)[C@H](Cc1ccc(OCC(=O)O)cc1)NC(=O)OC(C)(C)C`, the Ki (in general, the equilibrium dissociation constant of an inhibitor or competing ligand from its target) in assay [1] was above 200 µM.
As for `CCc1cc(CC(NC(C)=O)C(=O)NCCCCOc2cccc(O)c2C(=O)OC)ccc1N(C(=O)C(=O)O)c1ccccc1C(=O)O` (centres undefined), in assay [1], the Ki worked out at 65 µM.
`COC(=O)c1c(O)cccc1OCCCCNC(=O)[C@H](Cc1ccc(C=CC(=O)O)cc1)NC(=O)OC(C)(C)C` [(2Z)-3-{4-[(2S)-2-{[(tert-butoxy)carbonyl]amino}-2-({4-[3-hydroxy-2-(methoxycarbonyl)phenoxy]butyl}carbamoyl)ethyl]phenyl}prop-2-enoic acid] had a Ki in assay [2] above 200 µM.
`COC(=O)c1c(O)cccc1OCCCCNC(=O)[C@H](Cc1ccc(OCC(=O)O)c(O)c1)NC(C)=O` (racemic) [2-{4-[2-acetamido-2-({4-[3-hydroxy-2-(methoxycarbonyl)phenoxy]butyl}carbamoyl)ethyl]-2-hydroxyphenoxy}acetic acid] gave a Ki in assay [1] of 182 µM.

The record behind these values is BindingDB's records for doi:10.1016/j.bmcl.2003.08.064 (Abbott Laboratories, 2003).
